# Laboratory results taken from the supplement of paper PMC10307832.
# Key:
# Assay in all cases: relative viability (nuclei count vs DMSO), 5 days (fraction); higher = more cells survive
# [1] = compound: COc1cc(-c2nn([C@H]3CC[C@H](N4CCN(C(C)=O)CC4)CC3)c3ncnc(N)c23)ccc1NC(=O)c1cc2ccccc2n1C + Nc1ncn([C@H]2C[C@H](O)[C@@H](CO)O2)c(=O)n1 [Decitabine] (partner 2 µM)
# How it was run: (§1)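 Cells from lung cancer lines were seeded into 1536-well plates and, one day later, dosed by pin tool. Treatments were either a single drug or a fixed dose of an anchor drug with five library-drug doses (not always all listed) in √10 steps. After 5 days, nuclei were stained in a one-step fixation (final 0.05% Triton X-100, 1% formaldehyde, 1 ug/ml Hoechst) and counted on 4× images, and relative viability is the treated-to-vehicle nuclei ratio, as the median of duplicate plates.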
# Midostaurin + AZD7762 = compound: CO[C@@H]1[C@H](N(C)C(=O)c2ccccc2)C[C@H]2O[C@]1(C)n1c3ccccc3c3c4c(c5c6ccccc6n2c5c31)C(=O)NC4 [Midostaurin] + NC(=O)Nc1cc(-c2cccc(F)c2)sc1C(=O)N[C@H]1CCCNC1 [AZD7762] (partner 0.2 µM)
# How it was run: as §1
# [2] = compound: CO[C@@H]1[C@H](N(C)C(=O)c2ccccc2)C[C@H]2O[C@]1(C)n1c3ccccc3c3c4c(c5c6ccccc6n2c5c31)C(=O)NC4 [Midostaurin] + CC(=O)c1c(C)c2cnc(Nc3ccc(N4CCNCC4)cn3)nc2n(C2CCCC2)c1=O [Palbociclib] (partner 0.5 µM)
# How it was run: as §1
# Midostaurin + Alpelisib = compound: CO[C@@H]1[C@H](N(C)C(=O)c2ccccc2)C[C@H]2O[C@]1(C)n1c3ccccc3c3c4c(c5c6ccccc6n2c5c31)C(=O)NC4 [Midostaurin] + Cc1nc(NC(=O)N2CCC[C@H]2C(N)=O)sc1-c1ccnc(C(C)(C)C(F)(F)F)c1 [Alpelisib] (partner 2 µM)
# How it was run: as §1
# [3] = compound: COc1cc(-c2nn([C@H]3CC[C@H](N4CCN(C(C)=O)CC4)CC3)c3ncnc(N)c23)ccc1NC(=O)c1cc2ccccc2n1C + C[C@@H](Oc1cc(-c2cnn(C3CCNCC3)c2)cnc1N)c1c(Cl)ccc(F)c1Cl [Crizotinib] (partner 1 µM)
# How it was run: as §1
Cell Line,relative viability ([1]; first compound 0.0128 µM),relative viability ([1]; first compound 0.04048 µM),relative viability ([1]; first compound 0.128 µM),relative viability ([1]; first compound 1.28 µM),relative viability (Midostaurin + AZD7762; first compound 0.01 µM),relative viability (Midostaurin + AZD7762; first compound 0.03162 µM),relative viability (Midostaurin + AZD7762; first compound 0.1 µM),relative viability (Midostaurin + AZD7762; first compound 0.3162 µM),relative viability ([2]; first compound 0.01 µM),relative viability ([2]; first compound 0.03162 µM),relative viability ([2]; first compound 0.1 µM),relative viability ([2]; first compound 0.3162 µM),relative viability (Midostaurin + Alpelisib; first compound 0.01 µM),relative viability (Midostaurin + Alpelisib; first compound 0.03162 µM),relative viability (Midostaurin + Alpelisib; first compound 0.1 µM),relative viability (Midostaurin + Alpelisib; first compound 0.3162 µM),relative viability ([3]; first compound 0.0128 µM),relative viability ([3]; first compound 0.04048 µM),relative viability ([3]; first compound 0.128 µM),relative viability ([3]; first compound 1.28 µM)
NCI-H2342,0.812,0.783,0.777,0.609,0.558,0.503,0.489,0.451,0.477,0.538,0.491,0.547,–,–,–,–,–,–,–,–
HCC-15,0.822,0.589,0.638,0.567,1.16,0.98,0.532,1.07,0.806,0.788,0.771,0.73,0.944,0.838,0.954,0.925,0.89,0.772,0.808,0.67
A-427,0.529,0.589,0.571,0.666,0.742,0.727,0.871,0.723,0.486,0.566,0.513,0.508,1.05,0.996,1.07,0.982,1.04,0.771,0.872,0.803
NCI-H2228,–,–,–,–,–,–,–,–,0.569,0.954,0.842,0.845,0.891,0.762,0.7,0.695,0.426,0.489,0.428,0.276
NCI-H1734,0.521,0.468,0.516,0.479,0.498,0.537,0.543,0.39,0.334,0.38,0.373,0.351,0.656,0.618,0.69,0.742,0.745,0.596,0.669,0.56
PC-14,0.203,0.186,0.216,0.326,0.33,0.42,0.329,0.328,0.487,0.643,0.485,0.369,0.827,0.896,0.891,0.785,0.941,0.98,0.965,0.87
NCI-H1915,0.293,0.244,0.264,0.262,0.654,0.679,0.671,0.709,0.451,0.523,0.531,0.524,1.04,1.02,1.06,1.06,0.87,0.942,0.866,0.869
NCI-H1666,0.71,0.673,0.758,0.66,0.881,0.804,0.911,0.778,0.634,0.669,0.661,0.657,1.06,0.788,0.838,0.732,0.909,0.904,0.97,0.827
HCC-366,0.379,0.344,0.351,0.306,0.235,0.373,0.273,0.0975,0.364,0.409,0.389,0.384,0.331,0.297,0.318,0.323,0.692,0.679,0.546,0.281
SK-MES-1,0.384,0.368,0.454,0.355,–,–,–,–,0.326,0.359,0.27,0.246,0.886,0.818,0.986,0.671,1.02,1.04,0.869,0.971
SW 1573,0.527,0.446,0.491,0.366,–,–,–,–,0.422,0.504,0.424,0.247,0.73,0.721,0.805,0.618,0.775,0.703,0.636,0.652
NCI-H661,0.513,0.532,0.511,0.509,–,–,–,–,0.399,0.41,0.438,0.469,0.684,0.601,0.758,0.661,1.09,1.03,1.07,1.1
PC-3 [JPC-3],0.923,0.894,0.847,0.865,0.737,0.892,0.759,0.869,0.561,0.554,0.546,0.602,1,0.925,1.02,1.04,1.05,1.09,0.968,1.08
Calu-6,–,–,–,–,–,–,–,–,–,–,–,–,0.944,0.913,0.914,0.766,0.692,0.806,0.609,0.596
LC-2-ad,0.818,0.778,0.723,0.854,0.873,0.878,0.843,0.724,0.482,0.53,0.536,0.566,0.82,0.78,0.878,0.654,0.443,0.399,0.414,0.409
CAL-12T,–,–,–,–,0.608,0.553,0.469,0.452,0.513,0.492,0.405,0.308,1.28,0.765,0.816,1.09,0.621,0.818,0.581,0.413
RERF-LC-KJ,0.716,0.759,0.737,0.845,0.994,0.96,1.05,1.03,0.993,1.08,1.13,1.02,0.846,1.02,0.924,0.969,0.897,0.914,0.742,0.846
